# From patent US10710978B2, “STK4 inhibitors for treatment of hematologic malignancies” (Dana-Farber Cancer Institute, Inc., priority 2015, dated 2020)
# Like-named read-outs stand apart in the source and are kept apart here.
# Key:
# Test in all cases: KiNativ assay
# Format in all cases: binding
# Details in all cases: H929 live cell
# PKD3 = PKD3 (Homo sapiens (Human), UniProt O94806)
# Procedure: (§1) Biochemical IC50s of the compounds of the present disclosure against various kinases were measured in a KiNativ assay. Compounds were screened in duplicate at 10 μM in H929 live cell. IC50 was measured via Mass spectroscopy (MS).
# IKKe, TBK1 = system: IKKe, TBK1
# Procedure: as §1
# MST1, MST2 = system: MST1, MST2
# Procedure: as §1
# DGKH = DGKH (Homo sapiens (Human), UniProt Q86XP1)
# Procedure: as §1
# IRAK1 = IRAK1 (Homo sapiens (Human), UniProt P51617)
# Procedure: as §1
# Wnk1, Wnk2, Wnk3 = system: Wnk1, Wnk2, Wnk3
# Procedure: as §1
# PIP5K3 = PIP5K3 (Homo sapiens (Human), UniProt Q9Y2I7)
# Procedure: as §1
# BARK1 = BARK1 (Homo sapiens (Human), UniProt P25098)
# Procedure: as §1
# MLK3 = MLK3 (Homo sapiens (Human), UniProt Q16584)
# Chain of MLK3 (Q16584 whole entry): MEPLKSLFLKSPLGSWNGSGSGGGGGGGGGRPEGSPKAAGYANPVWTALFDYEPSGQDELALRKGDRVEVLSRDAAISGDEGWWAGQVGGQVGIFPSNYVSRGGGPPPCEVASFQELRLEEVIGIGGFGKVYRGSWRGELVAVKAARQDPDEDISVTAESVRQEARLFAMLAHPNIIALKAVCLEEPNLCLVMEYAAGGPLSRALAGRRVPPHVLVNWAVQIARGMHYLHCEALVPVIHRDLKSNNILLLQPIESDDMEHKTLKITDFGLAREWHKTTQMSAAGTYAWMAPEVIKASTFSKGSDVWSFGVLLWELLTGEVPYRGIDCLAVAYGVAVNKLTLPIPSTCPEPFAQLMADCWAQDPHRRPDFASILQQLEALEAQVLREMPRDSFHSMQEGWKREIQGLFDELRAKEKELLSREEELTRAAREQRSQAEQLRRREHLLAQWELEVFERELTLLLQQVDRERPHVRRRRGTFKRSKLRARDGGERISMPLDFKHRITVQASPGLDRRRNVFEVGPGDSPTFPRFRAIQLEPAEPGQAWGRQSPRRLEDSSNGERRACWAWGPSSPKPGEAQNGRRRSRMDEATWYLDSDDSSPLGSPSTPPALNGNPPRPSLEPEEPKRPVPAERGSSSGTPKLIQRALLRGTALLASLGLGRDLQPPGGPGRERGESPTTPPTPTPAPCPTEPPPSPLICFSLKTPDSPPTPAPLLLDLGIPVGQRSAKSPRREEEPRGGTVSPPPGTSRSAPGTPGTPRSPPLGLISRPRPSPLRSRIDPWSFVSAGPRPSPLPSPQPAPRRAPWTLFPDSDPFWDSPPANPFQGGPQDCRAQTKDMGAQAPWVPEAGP
# Procedure: as §1
# PHKg2 = PHKg2 (Homo sapiens (Human), UniProt P15735)
# Procedure: as §1
# MAP2K1 = MAP2K1 (Homo sapiens (Human), UniProt Q02750)
# Procedure: as §1
# eEF2K = eEF2K (Homo sapiens (Human), UniProt O00418)
# Procedure: as §1
# GSK3B = GSK3B (Homo sapiens (Human), UniProt P49841)
# Chain of GSK3B (P49841 whole entry): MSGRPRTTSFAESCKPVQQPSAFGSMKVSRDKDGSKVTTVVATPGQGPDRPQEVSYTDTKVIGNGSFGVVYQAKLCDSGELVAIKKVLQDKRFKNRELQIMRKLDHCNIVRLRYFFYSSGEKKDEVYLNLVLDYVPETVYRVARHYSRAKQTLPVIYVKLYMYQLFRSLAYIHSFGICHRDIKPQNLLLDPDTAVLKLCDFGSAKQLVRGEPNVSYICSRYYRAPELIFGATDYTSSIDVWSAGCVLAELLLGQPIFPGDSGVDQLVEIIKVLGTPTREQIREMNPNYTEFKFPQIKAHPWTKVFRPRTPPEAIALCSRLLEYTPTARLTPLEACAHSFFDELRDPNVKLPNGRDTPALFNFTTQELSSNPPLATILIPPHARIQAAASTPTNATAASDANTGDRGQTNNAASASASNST
# Procedure: as §1
# MARK1, MARK2 = system: MARK1, MARK2
# Procedure: as §1
# PIK3CG = PIK3CG (Homo sapiens (Human), UniProt P48736)
# Procedure: as §1
# [1] = system: ZC1/HGK, ZC2/TNIK, ZC3/MINK
# Procedure: as §1
# PKCz = PKCz (Homo sapiens (Human), UniProt Q05513)
# Procedure: as §1
# MAP3K4 = MAP3K4 (Homo sapiens (Human), UniProt Q9Y6R4)
# Chain of MAP3K4 (Q9Y6R4 whole entry): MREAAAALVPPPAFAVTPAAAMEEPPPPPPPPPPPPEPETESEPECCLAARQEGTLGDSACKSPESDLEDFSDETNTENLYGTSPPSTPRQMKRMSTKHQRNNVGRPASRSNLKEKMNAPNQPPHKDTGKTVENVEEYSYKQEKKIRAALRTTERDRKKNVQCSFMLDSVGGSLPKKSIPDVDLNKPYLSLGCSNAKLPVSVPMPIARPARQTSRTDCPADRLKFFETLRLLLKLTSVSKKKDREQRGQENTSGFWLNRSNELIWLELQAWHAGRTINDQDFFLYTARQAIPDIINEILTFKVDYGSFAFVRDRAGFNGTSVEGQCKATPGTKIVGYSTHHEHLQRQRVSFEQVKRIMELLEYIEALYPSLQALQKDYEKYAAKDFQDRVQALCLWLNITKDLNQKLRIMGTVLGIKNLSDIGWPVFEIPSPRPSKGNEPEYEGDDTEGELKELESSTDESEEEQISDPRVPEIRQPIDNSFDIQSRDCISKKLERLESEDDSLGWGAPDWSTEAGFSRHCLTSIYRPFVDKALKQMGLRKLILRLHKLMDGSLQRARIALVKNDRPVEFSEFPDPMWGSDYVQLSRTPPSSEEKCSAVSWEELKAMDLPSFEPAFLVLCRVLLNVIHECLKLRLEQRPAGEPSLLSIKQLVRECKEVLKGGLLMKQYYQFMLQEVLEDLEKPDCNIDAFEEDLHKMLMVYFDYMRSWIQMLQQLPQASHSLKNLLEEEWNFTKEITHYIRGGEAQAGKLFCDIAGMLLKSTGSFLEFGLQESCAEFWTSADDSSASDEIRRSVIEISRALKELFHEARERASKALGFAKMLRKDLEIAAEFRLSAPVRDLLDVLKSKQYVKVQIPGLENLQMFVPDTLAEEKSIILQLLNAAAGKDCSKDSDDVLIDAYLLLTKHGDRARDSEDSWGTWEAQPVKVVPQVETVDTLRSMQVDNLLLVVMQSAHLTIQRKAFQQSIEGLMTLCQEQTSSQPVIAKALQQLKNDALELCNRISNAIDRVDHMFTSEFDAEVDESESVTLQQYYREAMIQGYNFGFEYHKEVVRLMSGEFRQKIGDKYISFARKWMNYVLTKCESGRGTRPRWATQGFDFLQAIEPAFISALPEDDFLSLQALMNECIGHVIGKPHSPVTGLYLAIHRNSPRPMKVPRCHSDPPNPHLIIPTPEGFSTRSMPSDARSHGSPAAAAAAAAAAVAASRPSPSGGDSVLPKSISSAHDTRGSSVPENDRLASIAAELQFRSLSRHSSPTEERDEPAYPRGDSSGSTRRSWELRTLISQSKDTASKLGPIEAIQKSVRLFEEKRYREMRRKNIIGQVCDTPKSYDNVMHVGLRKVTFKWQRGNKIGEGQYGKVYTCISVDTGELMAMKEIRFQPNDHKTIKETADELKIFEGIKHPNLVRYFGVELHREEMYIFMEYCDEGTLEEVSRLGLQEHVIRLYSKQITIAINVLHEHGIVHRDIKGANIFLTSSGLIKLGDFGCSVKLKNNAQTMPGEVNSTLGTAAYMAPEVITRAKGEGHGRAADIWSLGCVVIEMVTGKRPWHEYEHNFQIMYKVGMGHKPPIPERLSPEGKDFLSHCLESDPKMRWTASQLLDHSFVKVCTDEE
# Procedure: as §1
# CLK2 = CLK2 (Homo sapiens (Human), UniProt P49760)
# Procedure: as §1
# SMG1 = SMG1 (Homo sapiens (Human), UniProt Q96Q15)
# Procedure: as §1
# IRAK4 = IRAK4 (Homo sapiens (Human), UniProt Q9NWZ3)
# Procedure: as §1
# MSK2 domain1 = MSK2 domain1 (Homo sapiens (Human), UniProt O75676)
# Procedure: as §1
# MAP2K7 = MAP2K7 (Homo sapiens (Human), UniProt O14733)
# Chain of MAP2K7 (O14733 whole entry): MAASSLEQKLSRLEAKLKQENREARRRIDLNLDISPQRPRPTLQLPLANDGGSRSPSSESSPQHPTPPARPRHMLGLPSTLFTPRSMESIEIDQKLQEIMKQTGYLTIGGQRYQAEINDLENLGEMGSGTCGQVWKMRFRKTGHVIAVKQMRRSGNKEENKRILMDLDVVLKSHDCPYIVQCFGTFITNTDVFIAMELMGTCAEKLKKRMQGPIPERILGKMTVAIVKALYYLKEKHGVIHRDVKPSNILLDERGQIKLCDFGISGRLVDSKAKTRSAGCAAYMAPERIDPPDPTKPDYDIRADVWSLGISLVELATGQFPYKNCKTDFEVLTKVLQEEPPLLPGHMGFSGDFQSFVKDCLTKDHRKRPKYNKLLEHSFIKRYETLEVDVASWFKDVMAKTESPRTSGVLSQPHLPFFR
# Procedure: as §1
# CK1g3 = CK1g3 (Homo sapiens (Human), UniProt Q9Y6M4)
# Chain of CK1g3 (Q9Y6M4 whole entry): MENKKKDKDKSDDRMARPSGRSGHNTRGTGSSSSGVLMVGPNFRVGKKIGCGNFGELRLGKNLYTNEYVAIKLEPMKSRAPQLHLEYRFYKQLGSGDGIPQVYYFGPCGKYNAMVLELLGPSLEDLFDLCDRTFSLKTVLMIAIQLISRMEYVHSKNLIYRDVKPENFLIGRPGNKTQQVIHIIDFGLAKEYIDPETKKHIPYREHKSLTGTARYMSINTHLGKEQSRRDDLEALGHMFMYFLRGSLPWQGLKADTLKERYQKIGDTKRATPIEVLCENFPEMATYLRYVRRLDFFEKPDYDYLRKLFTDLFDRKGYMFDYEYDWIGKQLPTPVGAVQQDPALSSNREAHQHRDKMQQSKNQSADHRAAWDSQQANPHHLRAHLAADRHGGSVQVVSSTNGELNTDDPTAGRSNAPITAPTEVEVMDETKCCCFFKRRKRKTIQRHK
# Procedure: as §1
# NEK9 = NEK9 (Homo sapiens (Human), UniProt Q8TD19)
# Chain of NEK9 (Q8TD19 whole entry): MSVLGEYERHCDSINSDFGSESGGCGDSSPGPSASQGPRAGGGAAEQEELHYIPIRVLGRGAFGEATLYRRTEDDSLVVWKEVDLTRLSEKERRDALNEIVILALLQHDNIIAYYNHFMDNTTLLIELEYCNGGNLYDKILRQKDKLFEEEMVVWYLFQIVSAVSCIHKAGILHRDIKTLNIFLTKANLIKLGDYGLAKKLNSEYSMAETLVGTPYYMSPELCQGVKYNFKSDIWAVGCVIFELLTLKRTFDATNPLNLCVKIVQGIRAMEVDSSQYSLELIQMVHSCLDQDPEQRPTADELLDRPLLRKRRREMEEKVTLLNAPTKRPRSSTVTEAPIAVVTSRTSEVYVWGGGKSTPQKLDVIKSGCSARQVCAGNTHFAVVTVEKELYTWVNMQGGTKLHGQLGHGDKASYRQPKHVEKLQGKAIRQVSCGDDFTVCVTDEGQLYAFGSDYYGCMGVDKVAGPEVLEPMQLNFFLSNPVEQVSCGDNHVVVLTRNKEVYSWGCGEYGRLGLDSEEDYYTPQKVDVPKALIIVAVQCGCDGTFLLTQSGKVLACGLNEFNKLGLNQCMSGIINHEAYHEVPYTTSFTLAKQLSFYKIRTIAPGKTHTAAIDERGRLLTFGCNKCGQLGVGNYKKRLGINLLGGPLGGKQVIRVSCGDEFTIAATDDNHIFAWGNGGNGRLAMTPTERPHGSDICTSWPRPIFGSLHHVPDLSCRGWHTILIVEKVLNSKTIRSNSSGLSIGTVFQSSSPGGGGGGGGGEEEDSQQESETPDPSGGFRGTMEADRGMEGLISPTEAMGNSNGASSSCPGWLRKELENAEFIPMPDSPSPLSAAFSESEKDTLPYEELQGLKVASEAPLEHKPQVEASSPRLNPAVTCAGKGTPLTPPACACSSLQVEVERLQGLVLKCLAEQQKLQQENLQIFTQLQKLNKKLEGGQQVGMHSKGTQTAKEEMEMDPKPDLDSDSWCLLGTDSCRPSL
# Procedure: as §1
# IKKb = IKKb (Homo sapiens (Human), UniProt O14920)
# Procedure: as §1
# CK1g2 = CK1g2 (Homo sapiens (Human), UniProt P78368)
# Procedure: as §1
# MAP3K1 = MAP3K1 (Homo sapiens (Human), UniProt Q13233)
# Procedure: as §1
# MARK2, MARK3 = system: MARK2, MARK3
# Procedure: as §1
# JNK1, JNK2, JNK3 = system: JNK1, JNK2, JNK3
# Procedure: as §1
# MARK3 = MARK3 (Homo sapiens (Human), UniProt P27448)
# Procedure: as §1
# CHK1 = CHK1 (Homo sapiens (Human), UniProt O14757)
# Procedure: as §1
# OSR1 = OSR1 (Homo sapiens (Human), UniProt O95747)
# Procedure: as §1
# PAN3 = PAN3 (Homo sapiens (Human), UniProt Q58A45)
# Procedure: as §1
# [2] = range class, read-out: % inhibition
compound,measurement,setting,value
"CN(C1CC1)S(=O)(=O)c1ccc(-c2cnc(N)c(-c3ccc4c(c3)CCNC4=O)c2)c(F)c1 [Compound I-28, 4-(6-amino-5-(1-oxo-1,2,3,4-tetrahydroisoquinolin-6-yl)pyridin-3-yl)-N-cyclopropyl-3-fluoro-N-methylbenzenesulfonamide]",inhibition at 10 µM,PKD3; read-out: % inhibition (range),35 to 50%
same,inhibition at 10 µM,PKD3; read-out: inhibition (10 μM),36.6%
same,% inhibition (range),"IKKe, TBK1; 10 μM",0.0%
same,inhibition (10 μM),"IKKe, TBK1",−14.8%
same,% inhibition (range),"MST1, MST2; 10 μM",>90%
same,inhibition (10 μM),"MST1, MST2",97.5%
same,inhibition at 10 µM,DGKH; read-out: % inhibition (range),0%
same,inhibition at 10 µM,DGKH; read-out: inhibition (10 μM),10.9%
same,inhibition at 10 µM,IRAK1; read-out: % inhibition (range),50 to 75%
same,inhibition at 10 µM,IRAK1; read-out: inhibition (10 μM),67.8%
same,% inhibition (range),"Wnk1, Wnk2, Wnk3; 10 μM",0.0%
same,inhibition (10 μM),"Wnk1, Wnk2, Wnk3",−31.8%
same,inhibition at 10 µM,PIP5K3; read-out: % inhibition (range),75 to 90%
same,inhibition at 10 µM,PIP5K3; read-out: inhibition (10 μM),83.4%
same,inhibition at 10 µM,BARK1; read-out: % inhibition (range),0%
same,inhibition at 10 µM,BARK1; read-out: inhibition (10 μM),22.3%
same,inhibition at 10 µM,MLK3; read-out: % inhibition (range),0%
same,inhibition at 10 µM,MLK3; read-out: inhibition (10 μM),11.7%
same,inhibition at 10 µM,PHKg2; read-out: % inhibition (range),0%
same,inhibition at 10 µM,PHKg2; read-out: inhibition (10 μM),17.3%
same,inhibition at 10 µM,MAP2K1; read-out: % inhibition (range),0%
same,inhibition at 10 µM,MAP2K1; read-out: inhibition (10 μM),-5.5%
same,inhibition at 10 µM,eEF2K; read-out: % inhibition (range),0%
same,inhibition at 10 µM,eEF2K; read-out: inhibition (10 μM),-15.1%
same,inhibition at 10 µM,GSK3B; read-out: % inhibition (range),> 90%
same,inhibition at 10 µM,GSK3B; read-out: inhibition (10 μM),96.4%
same,% inhibition (range),"MARK1, MARK2; 10 μM",0.0%
same,inhibition (10 μM),"MARK1, MARK2",−1.3%
same,inhibition at 10 µM,PIK3CG; read-out: % inhibition (range),0%
same,inhibition at 10 µM,PIK3CG; read-out: inhibition (10 μM),1.7%
same,% inhibition (range),[1]; 10 μM,>90%
same,inhibition (10 μM),[1],94.5%
same,inhibition at 10 µM,PKCz; read-out: % inhibition (range),0%
same,inhibition at 10 µM,PKCz; read-out: inhibition (10 μM),6.2%
same,inhibition at 10 µM,MAP3K4; read-out: % inhibition (range),0%
same,inhibition at 10 µM,MAP3K4; read-out: inhibition (10 μM),-8.8%
same,inhibition at 10 µM,CLK2; read-out: % inhibition (range),35 to 50%
same,inhibition at 10 µM,CLK2; read-out:,42.7%
same,inhibition at 10 µM,SMG1; read-out: % inhibition (range),35 to 50%
same,inhibition at 10 µM,SMG1; read-out: inhibition (10 μM),42.9%
same,inhibition at 10 µM,IRAK4; read-out: % inhibition (range),0%
same,inhibition at 10 µM,IRAK4; read-out: inhibition (10 μM),-0.7%
same,inhibition at 10 µM,MSK2 domain1; read-out: % inhibition (range),0%
same,inhibition at 10 µM,MSK2 domain1; read-out: inhibition (10 μM),2.9%
same,inhibition at 10 µM,MAP2K7; read-out: % inhibition (range),0%
same,inhibition at 10 µM,MAP2K7; read-out: inhibition (10 μM),-0.5%
same,inhibition at 10 µM,CK1g3; read-out: % inhibition (range),> 90%
same,inhibition at 10 µM,CK1g3; read-out: inhibition (10 μM),93.8%
same,inhibition at 10 µM,NEK9; read-out: % inhibition (range),0%
same,inhibition at 10 µM,NEK9; read-out: inhibition (10 μM),-4.7%
same,inhibition at 10 µM,IKKb; read-out: % inhibition (range),0%
same,inhibition at 10 µM,IKKb; read-out: inhibition (10 μM),6.8%
same,inhibition at 10 µM,CK1g2; read-out: % inhibition (range),> 90%
same,inhibition at 10 µM,CK1g2; read-out: inhibition (10 μM),> 90%
same,inhibition at 10 µM,MAP3K1; read-out: % inhibition (range),> 90%
same,inhibition at 10 µM,MAP3K1; read-out: inhibition (10 μM),91.1%
same,% inhibition (range),"MARK2, MARK3; 10 μM",0.0%
same,inhibition (10 μM),"MARK2, MARK3",−7.8%
same,% inhibition (range),"JNK1, JNK2, JNK3; 10 μM",0.0%
same,inhibition (10 μM),"JNK1, JNK2, JNK3",−12.9%
same,inhibition at 10 µM,MARK3; read-out: % inhibition (range),0%
same,inhibition at 10 µM,MARK3; read-out: inhibition (10 μM),14.5%
same,inhibition at 10 µM,CHK1; read-out: % inhibition (range),0%
same,inhibition at 10 µM,CHK1; read-out: inhibition (10 μM),27.5%
same,inhibition at 10 µM,OSR1; read-out: % inhibition (range),0%
same,inhibition at 10 µM,OSR1; read-out: inhibition (10 μM),22.8%
same,inhibition at 10 µM,PAN3; read-out: % inhibition (range),0%
same,inhibition at 10 µM,PAN3; read-out: inhibition (10 μM),-45.1%
"COc1cc(NS(=O)(=O)C2CC2)ccc1-c1cnc(N)c(-c2ccc3c(c2)CCNC3=O)c1 [Compound I-50, N-(4-(6-amino-5-(1-oxo-1,2,3,4-tetrahydroisoquinolin-6-yl)pyridin-3-yl)-3-methoxyphenyl) cyclopropanesulfonamide]",inhibition at 10 µM,PKD3; [2],50 to 75%
same,inhibition at 10 µM,PKD3; read-out: inhibition (10 μM),69.7%
same,% inhibition,"IKKe, TBK1; 10 μM, range class",0.0%
same,inhibition (10 μM),"IKKe, TBK1",33.9%
same,% inhibition,"MST1, MST2; 10 μM, range class",>90%
same,inhibition (10 μM),"MST1, MST2",98.7%
same,inhibition at 10 µM,DGKH; [2],0%
same,inhibition at 10 µM,DGKH; read-out: inhibition (10 μM),6.3%
same,inhibition at 10 µM,IRAK1; [2],50 to 75%
same,inhibition at 10 µM,IRAK1; read-out: inhibition (10 μM),51.2%
same,% inhibition,"Wnk1, Wnk2, Wnk3; 10 μM, range class",0.0%
same,inhibition (10 μM),"Wnk1, Wnk2, Wnk3",15.9%
same,inhibition at 10 µM,PIP5K3; [2],75 to 90%
same,inhibition at 10 µM,PIP5K3; read-out: inhibition (10 μM),79.7%
same,inhibition at 10 µM,BARK1; [2],0%
same,inhibition at 10 µM,BARK1; read-out: inhibition (10 μM),-19.4%
same,inhibition at 10 µM,MLK3; [2],35 to 40%
same,inhibition at 10 µM,MLK3; read-out: inhibition (10 μM),40.9%
same,inhibition at 10 µM,PHKg2; [2],0%
same,inhibition at 10 µM,PHKg2; read-out: inhibition (10 μM),-38.6%
same,inhibition at 10 µM,MAP2K1; [2],0%
same,inhibition at 10 µM,MAP2K1; read-out: inhibition (10 μM),17.8%
same,inhibition at 10 µM,eEF2K; [2],0%
same,inhibition at 10 µM,eEF2K; read-out: inhibition (10 μM),-1%
same,inhibition at 10 µM,GSK3B; [2],75 to 90%
same,inhibition at 10 µM,GSK3B; read-out: inhibition (10 μM),81.1%
same,% inhibition,"MARK1, MARK2; 10 μM, range class",0.0%
same,inhibition (10 μM),"MARK1, MARK2",−29.5%
same,inhibition at 10 µM,PIK3CG; [2],0%
same,inhibition at 10 µM,PIK3CG; read-out: inhibition (10 μM),-74.9%
same,% inhibition,"[1]; 10 μM, range class",>90%
same,inhibition (10 μM),[1],96.3%
same,inhibition at 10 µM,PKCz; [2],0%
same,inhibition at 10 µM,PKCz; read-out: inhibition (10 μM),-1.7%
same,inhibition at 10 µM,MAP3K4; [2],0%
same,inhibition at 10 µM,MAP3K4; read-out: inhibition (10 μM),9.5%
same,inhibition at 10 µM,CLK2; [2],0%
same,inhibition at 10 µM,CLK2; read-out:,10.8%
same,inhibition at 10 µM,SMG1; [2],0%
same,inhibition at 10 µM,SMG1; read-out: inhibition (10 μM),30.8%
same,inhibition at 10 µM,IRAK4; [2],0%
same,inhibition at 10 µM,IRAK4; read-out: inhibition (10 μM),19.6%
same,inhibition at 10 µM,MSK2 domain1; [2],0%
same,inhibition at 10 µM,MSK2 domain1; read-out: inhibition (10 μM),-2.8%
same,inhibition at 10 µM,MAP2K7; [2],0%
same,inhibition at 10 µM,MAP2K7; read-out: inhibition (10 μM),16.4%
same,inhibition at 10 µM,CK1g3; [2],75 to 90%
same,inhibition at 10 µM,CK1g3; read-out: inhibition (10 μM),77.1%
same,inhibition at 10 µM,NEK9; [2],0%
same,inhibition at 10 µM,NEK9; read-out: inhibition (10 μM),5.9%
same,inhibition at 10 µM,IKKb; [2],0%
same,inhibition at 10 µM,IKKb; read-out: inhibition (10 μM),-26.2%
same,inhibition at 10 µM,CK1g2; [2],75 to 90%
same,inhibition at 10 µM,CK1g2; read-out: inhibition (10 μM),79.9%
same,inhibition at 10 µM,MAP3K1; [2],75 to 90%
same,inhibition at 10 µM,MAP3K1; read-out: inhibition (10 μM),86.7%
same,% inhibition,"MARK2, MARK3; 10 μM, range class",0.0%
same,inhibition (10 μM),"MARK2, MARK3",0.4%
same,% inhibition,"JNK1, JNK2, JNK3; 10 μM, range class",0.0%
same,inhibition (10 μM),"JNK1, JNK2, JNK3",26.8%
same,inhibition at 10 µM,MARK3; [2],0%
same,inhibition at 10 µM,MARK3; read-out: inhibition (10 μM),-17.3%
same,inhibition at 10 µM,CHK1; [2],0%
same,inhibition at 10 µM,CHK1; read-out: inhibition (10 μM),-9.6%
same,inhibition at 10 µM,OSR1; [2],0%
same,inhibition at 10 µM,OSR1; read-out: inhibition (10 μM),16.6%
same,inhibition at 10 µM,PAN3; [2],0%
same,inhibition at 10 µM,PAN3; read-out: inhibition (10 μM),14.3%
